Assays:
CSPG = CSPG neoepitope immunostaining of human nerve segments treated with chondroitinase
Procedure: Axonal regeneration was assessed by GAP-43 immunofluorescence and digital image analysis. Tissue sections mounted on slides were washed with PBS and then treated with 0.5% Triton X-100 in PBS for 10 min. The sections were treated with blocking buffer (10% serum in PBS+0.1% Triton X-100) and then incubated overnight at 4° C. with primary antibodies (diluted in blocking buffer). Bound antibodies were labeled with swine anti-rabbit immunoglobulins (DAKO CORPORATION, Carpinteria, Calif.) or goat anti-mouse immunoglobulins (Sigma) FITC-conjugated secondary antibodies for 1 h at room temperature in darkness. The anti-mouse secondary antibody was preadsorbed with rat serum prior to use. The sections were washed, postfixed with 4% paraformaldehyde in PBS, rinsed, and coverslipped in fluorescent mounting media. Affinity-purified rabbit anti-GAP-43 peptide antibody was produced using known methods (Ferguson T A et al. [2000] Mol Cell Neurosci, 16:157-167) and was used at 2 μg/ml. Polyclonal antibody 1918 (CHEMICON INTERNATIONAL, Temecula, Calif.) (1:1000) binds only to the unsaturated disaccharide unit that remains attached to the linkage region of CSPG core protein exposed by digestion with chondroitinase ABC (Bertolotto A et al. [1986] J Neurol Sci 73:233-244). Polyclonal anti-EHS laminin antibody (Sigma) (1:1000) was used to label basal laminae. […]

[1] = tested on: embryonic chick DRG neurons; assay: Cryoculture bioassay (neurite outgrowth) on sections of acellular rat nerve segments; type: cell-based
Procedure: Cryoculture is a neurite outgrowth assay in which neurons are cultured directly on fresh/frozen nerve sections and was performed as described previously (Ferguson T A et al. [2000] Mol Cell Neurosci, 16:157-167). Briefly, chondroitinase- and vehicle-treated nerve segments were sectioned at 20 μm, mounted on sterile, aminopropyltriethoxysilane (APTS)-coated coverslips and stored at −20° C. until used. Where indicated, sections were treated with chondroitinase ABC (0.1 unit/ml) or vehicle (50 mM Tris-HCl, pH 8.0), containing 50 mM NaCl) for 2 h at 37° C. Purified dorsal root ganglionic (DRG) neurons from day 8 chick embryos were seeded directly on the nerve sections in a defined N2 medium (Bottenstein J E et al. [1980] Exp Cell Res 125:183-190) containing 10 ng/ml nerve growth factor. Cryoculture assays were terminated after 24 h of incubation by fixation with 100% methanol. Neuritic growth by DRG neurons was accessed by GAP-43 immunofluorescent labeling. Epifluorescent photomicrographs were acquired as described for tissue sections. Neurite lengths were measured directly using IMAGE-PRO PLUS software (MEDIA CYBERNETICS, Silver Springs, Md.). At least 250 neurons with neurites greater than one cell body (˜15 μm) were scored for each condition in each experiment.
Inactivation of inhibitory CSPG in chondroitinase-treated acellular nerve was determined by cryoculture bioassay. Embryonic chick DRG neurons were seeded onto sections of prepared nerve segments and the neurite-promoting activity was assessed by scoring neurite growth. On sections of acellular nerve pretreated en bloc with vehicle only the average neurite length was 49 μm. Neurite growth on acellular nerve pretreated en bloc with chondroitinase averaged 96 μm, representing a 95% increase compared to the control condition. To determine if the en bloc chondroitinase treatment was thorough, cryoculture assays were performed on nerve tissues treated with chondroitinase after sectioning (post-treatment).

CSPG side chain degradation (neoepitope labeling) (CSPG): effectively degraded | effect of post-treatment on sections from en bloc chondroitinase-treated nerve grafts ([1]; post-treatment after sectioning): only a slight additive effect
Substance: chondroitinase ABC
increase in neurite growth compared to the control condition ([1]; acellular nerve pretreated en bloc vs en bloc vehicle): 95% | average neurite length ([1]; acellular nerve pretreated en bloc, DRG neurons grown 24 h): 96 μm | increase in neurite-promoting activity by post-treatment of sections ([1]; acellular nerve treated en bloc with vehicle only, sections post-treated with chondroitinase): 86%
